Experiments:
[1] = molecular target: T1, Glucocorticoid Receptor (GR) (Homo sapiens, UniProt P04150); test: GR Fluorescence Polarization Assay (PolarScreen Glucocorticoid Receptor Competitor Assay, Red); conditions: IC50 class ranges, read-out: GR binding
T1 construct: purchased Invitrogen P2893
T1 sequence (P04150 1-777): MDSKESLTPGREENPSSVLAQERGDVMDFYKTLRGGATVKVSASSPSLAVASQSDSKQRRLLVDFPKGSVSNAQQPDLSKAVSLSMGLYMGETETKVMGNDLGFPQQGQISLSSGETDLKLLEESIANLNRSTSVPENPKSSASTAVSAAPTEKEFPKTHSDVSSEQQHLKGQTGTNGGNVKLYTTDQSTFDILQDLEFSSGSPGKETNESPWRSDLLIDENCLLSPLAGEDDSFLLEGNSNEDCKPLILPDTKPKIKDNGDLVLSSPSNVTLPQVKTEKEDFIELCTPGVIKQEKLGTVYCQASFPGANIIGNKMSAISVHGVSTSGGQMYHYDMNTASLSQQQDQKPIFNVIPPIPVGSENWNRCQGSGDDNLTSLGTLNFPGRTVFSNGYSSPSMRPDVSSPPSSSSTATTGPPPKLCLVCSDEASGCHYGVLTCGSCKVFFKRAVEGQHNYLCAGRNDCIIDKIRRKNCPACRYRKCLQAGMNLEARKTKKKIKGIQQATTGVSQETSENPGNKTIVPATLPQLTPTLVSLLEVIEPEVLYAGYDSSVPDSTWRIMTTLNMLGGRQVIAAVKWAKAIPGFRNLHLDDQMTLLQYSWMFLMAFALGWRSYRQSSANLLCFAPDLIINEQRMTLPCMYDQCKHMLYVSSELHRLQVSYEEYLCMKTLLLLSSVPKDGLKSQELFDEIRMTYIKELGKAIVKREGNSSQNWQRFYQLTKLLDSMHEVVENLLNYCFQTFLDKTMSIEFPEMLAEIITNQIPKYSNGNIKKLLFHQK
Outline: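 Competitive fluorescence-polarization assay using a red fluorescent glucocorticoid tracer with human GR in kit buffer. Compounds serially diluted 1:4 in DMSO, incubated with tracer and GR overnight at 4° C, then polarization read.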

[2] = tested on: IL-6 in A549 cells stimulated with IL-1β; test: A549 Cell Assay to Measure Inflammation Markers (inhibition of IL-1β-induced IL-6); format: cell-based; conditions: Homo sapiens, A549, A549 Cell Assay to Measure Inflammation Markers; intrinsic activity, Emax class ranges
Outline: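 Compound pre-incubated with A549 cells 1 h at 37 °C, then stimulated with IL-1β (1 ng/mL final, 0.1% DMSO). Supernatant IL-6 quantified by MSD immunoassay after a further incubation. IC50 and Emax derived.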

SMILES	IC50 [1] [µM]	Emax [2] [%]
Cn1nc(-c2ccc(F)cc2)c2c1NCCSC2c1ccc(Cl)cc1Cl (centres unmarked) [D.94]	< 0.1	< 50
Cn1nc(-c2cccs2)c2c1NCCSC2c1ccc(Cl)cc1Cl (centres unmarked) [D.101]	< 0.1	< 50
Cn1nc(-c2ccccn2)c2c1NCCSC2c1ccc(Cl)cc1F (centres unmarked) [D.103]	< 0.1	< 50
Cc1cc(Cl)ccc1C1SCCNc2c1c(-c1ccccn1)nn2CC(F)(F)F (centres unmarked) [D.104]	< 0.1	> 70
Cc1cc(Cl)ccc1C1SCCNc2c1c(-c1ccccn1)nn2C(C)C (centres unmarked) [D.105]	< 0.1	> 60
COc1ccc(C)c(C2SC(C)(C)CNc3c2c(C2CC2)nn3C)c1 (centres unmarked) [D.106]	< 0.1	< 50
CCn1nc(C2CC2)c2c1NCC(C)(C)SC2c1ccc(Cl)cc1C (centres unmarked) [D.107]	< 0.1	< 50
CCn1nc(-c2ccncn2)c2c1NCCSC2c1ccc(Br)cc1C (centres unmarked) [D.108]	< 0.1	> 50
Cc1cc2c(cnn2-c2ccc(F)cc2)cc1C1SCCNc2c1c(-c1ccccn1)nn2C (centres unmarked) [D.109]	< 0.1	> 70
COC(=O)c1ccc(C2SCCNc3c2c(-c2ccccn2)nn3C)c(Cl)c1 (centres unmarked) [E.1, methyl 3-chloro-4-[1-methyl-3-(2-pyridyl)-4,6,7,8-tetrahydropyrazolo[3,4-e][1,4]thiazepin-4-yl]benzoate]	< 0.1	< 50
COC(=O)c1ccc(C)c(C2SCCNc3c2c(-c2ccccn2)nn3C)c1 (centres unmarked) [E.3, methyl 4-methyl-3-[1-methyl-3-(2-pyridyl)-4,6,7,8-tetrahydropyrazolo[3,4-e][1,4]thiazepin-4-yl]benzoate]	> 10	< 50
COC(=O)c1cc(C2SCCNc3c2c(-c2ccccn2)nn3C)c(C)s1 (centres unmarked) [E.5]	1 to 10	< 50
COC(=O)c1ccc(C2SCC(C)Nc3c2c(-c2ccccn2)nn3C)c(C)c1 (centres unmarked) [E.7]	< 0.1	> 50
Cc1ncccc1NC(=O)c1ccc(C2SCCNc3c2c(-c2ccccn2)nn3C)c(Cl)c1 (centres unmarked) [F.1, 3-chloro-N-(2-methyl-3-pyridyl)-4-[1-methyl-3-(2-pyridyl)-4,6,7,8-tetrahydropyrazolo[3,4-e][1,4]thiazepin-4-yl]benzamide]	< 0.1	> 70
Cc1ncccc1NC(=O)c1ccc(-c2nn(C)c3c2C(c2ccc(Cl)cc2Cl)SCCN3)nc1 (centres unmarked) [F.2]	1 to 10	< 50
Cc1ncccc1NC(=O)c1ccc(C2SCCNc3c2c(-c2ccccn2)nn3C)cc1 (centres unmarked) [F.3]	1 to 10	< 50
Cc1cc(C(=O)Nc2cccnc2C)sc1C1SCCNc2c1c(-c1ccccn1)nn2C (centres unmarked) [F.4]	> 10	< 50
Cc1ccc(C(=O)Nc2cccnc2C)cc1C1SCCNc2c1c(-c1ccccn1)nn2C (centres unmarked) [F.5]	> 10	< 50
Cc1ncccc1NC(=O)c1cc(C2SCCNc3c2c(-c2ccccn2)nn3C)c(C)s1 (centres unmarked) [F.6]	1 to 10	< 50
CCn1nc(-c2ccccn2)c2c1NCCCC2c1ccc(C(=O)Nc2cccnc2C)cc1C (centres unmarked) [F.7]	< 0.1	> 70
Cc1ccc(C#N)cc1C1SCCNc2c1c(-c1ccccn1)nn2C (centres unmarked) [G.1, 4-methyl-3-[1-methyl-3-(2-pyridyl)-4,6,7,8-tetrahydropyrazolo[3,4-e][1,4]thiazepin-4-yl]benzonitrile]	0.1 to 1	< 50
Cc1cc(C#N)ccc1[C@@H]1S[C@@H](C)CNc2c1c(C)nn2C [G.2]	0.1 to 1	< 50

SMILES	IC50 [1] [µM]	Emax [2] [%]
Cc1ccc(C#N)cc1C1SC(C)(C)CNc2c1c(C1CC1)nn2C (centres unmarked) [G.5]	0.1 to 1	< 50
Cc1cc(C#N)ccc1C1SC(C)(C)CNc2c1c(C)nn2C (centres unmarked) [G.6]	0.1 to 1	< 50
Cc1cc(C#N)ccc1C1SCC(C)Nc2c1c(-c1ccccn1)nn2C (centres unmarked) [G.7]	< 0.1	> 70
Cc1cc(C#N)ccc1C1SCCNc2c1c(-c1ccccn1)nn2C (centres unmarked) [G.8, 3-methyl-4-(1-methyl-3-(pyridin-2-yl)-4,6,7,8-tetrahydro-1H-pyrazolo[3,4-e][1,4]thiazepin-4-yl)benzonitrile]	< 0.1	> 60
Cc1cc(C#N)ccc1C1SCCNc2onc(-c3ccccn3)c21 (centres unmarked) [G.9]	< 0.1	< 50
CCn1nc(-c2ccccn2)c2c1NCCSC2c1ccc(C#N)cc1C (centres unmarked) [G.10, 3-methyl-4-(1-ethyl-3-(pyridin-2-yl)-4,6,7,8-tetrahydro-1H-pyrazolo[3,4-e][1,4]thiazepin-4-yl)benzonitrile]	< 0.1	> 70
Cc1cc(C(=O)Nc2cccnc2)ccc1C1SC(C)(C)CNc2c1c(C)nn2C (centres unmarked) [H.1, 3-methyl-N-(3-pyridyl)-4-(1,3,6,6-tetramethyl-7,8-dihydro-4H-pyrazolo[3,4-e][1,4]thiazepin-4-yl)benzamide]	1 to 10	< 50
Cn1nc(-c2ccccn2)c2c1NCCSC2c1ccc(C(=O)Nc2cccnc2)cc1Cl (centres unmarked) [H.3]	0.1 to 1	< 50
CCn1nc(-c2ccccn2)c2c1NCCSC2c1ccc(C(=O)Nc2cccnc2C)cc1C (centres unmarked) [H.4]	< 0.1	> 70
Cc1cc(C(=O)Nc2cccnc2C)ccc1C1SC(C)(C)CNc2c1c(C)nn2C (centres unmarked) [H.5]	1 to 10	< 50
Cc1cc(C(=O)Nc2cccnc2C)ccc1C1SCC(C)Nc2c1c(-c1ccccn1)nn2C (centres unmarked) [H.6]	< 0.1	> 70
Cn1nc(-c2ccccn2)c2c1NCCSC2c1ccc(C(N)=O)cc1Cl (centres unmarked) [I.1, 3-chloro-4-[1-methyl-3-(2-pyridyl)-4,6,7,8-tetrahydropyrazolo[3,4-e][1,4]thiazepin-4-yl]benzamide]	0.1 to 1	< 50
Cc1cc(C(N)=O)ccc1C1SC(C)(C)CNc2c1c(C)nn2C (centres unmarked) [I.4]	1 to 10	< 50
Cc1cc(Cl)ccc1C1SCC(C(C)C)Nc2c1c(-c1ccccn1)nn2C (centres unmarked) [K.3]	< 0.1	< 50
CC1CSC(c2ccc(Br)cc2C(F)(F)F)c2c(-c3ccccn3)nn(C)c2N1 (centres unmarked) [K.11]	< 0.1	< 50
Cc1nn(C)c2c1C(c1ccc(Cl)cc1Cl)[S+]([O-])C(C)(C)CN2 (centres unmarked) [L.1, 4-(2,4-dichlorophenyl)-1,3,6,6-tetramethyl-7,8-dihydro-4H-pyrazolo[3,4-e][1,4]thiazepine 5-oxide]	> 10	< 50
Cn1nc(-c2ccccn2)c2c1NCC[S+]([O-])C2c1ccc(Cl)cc1Cl (centres unmarked) [L.2]	1 to 10	< 50
Cn1nc(-c2ccccn2)c2c1NCCS(=O)(=O)C2c1ccc(Cl)cc1Cl (centres unmarked) [L.3]	0.1 to 1	< 50
Cc1nn(C)c2c1C(c1ccc(Cl)cc1Cl)S(=O)(=O)C(C)(C)CN2 (centres unmarked) [L.4]	1 to 10	< 50
CCn1nc(-c2ccccn2)c2c1NC(=O)CCC2c1ccc(C(=O)Nc2cccnc2C)cc1C (centres unmarked) [O.2]	0.1 to 1	> 70
CCn1nc(-c2ccccn2)c2c1NCCSC2c1ccc(C(=O)Nc2cc(C)no2)cc1C (centres unmarked) [R.1, 4-(1-ethyl-3-(pyridin-2-yl)-4,6,7,8-tetrahydro-1H-pyrazolo[3,4-e][1,4]thiazepin-4-yl)-3-methyl-N-(3-methylisoxazol-5-yl)benzamide]	< 0.1	< 50

— patent US9150592B2, “Heterocyclic nuclear hormone receptor modulators” (AbbVie Inc., priority 2012, dated 2015)
